Laboratory results reported in article PMC8161026, “Synthesis and Anticancer Activity Evaluation of 5-[2-Chloro-3-(4-nitrophenyl)-2-propenylidene]-4-thiazolidinones” (Molecules, 2021).

Tests used:
Breast Cancer subpanel = assay: cells
Description: (§1) At the first stage of biological activity study, the antitumor activity screening of the selected compounds 2b, 2c, 2f, 2h, and 2j was performed according to the NCI DTP (USA) standard protocol at the concentrations ranging from 10^−4 to 10^−8 M toward 60 tumor cell lines. The percentage of growth was evaluated spectrophotometrically versus controls not treated with test agents after 48 h exposure and using SRB protein assay to estimate cell viability or growth. Dose–response parameters were calculated for each cell line: GI50—molar concentration of the compound that inhibits 50% net cell growth; TGI—molar concentration of the compound leading to the total inhibition; and LC50—molar concentration of the compound leading to 50% net cell death. Furthermore, mean graph midpoints (MG_MID) were calculated for each of the parameters, giving an average activity parameter over all cell lines for the tested compound. For the MG_MID calculation, insensitive cell lines were included with the highest concentration tested.
(§2) The selectivity index (SI) obtained by dividing the full panel MG-MID (mM) of the tested compound by their individual subpanel MG-MID (mM) was considered as a measure of selectivity of anticancer activity (Table 3).
(§3) Primary anticancer assay was performed on a panel of approximately sixty human tumor cell lines derived from nine neoplastic diseases, in accordance with the protocol of the Drug Evaluation Branch, National Cancer Institute, Bethesda. Tested compounds were added to the culture at a single concentration (10^−5 M) and the cultures were incubated for 48 h. End point determinations were made with a protein binding dye, sulforhodamine B (SRB). […] The percentage growth was evaluated spectrophotometrically versus controls not treated with test agents.
(§4) Dose–response parameters (GI50, TGI, LC50) were calculated for each compound. […] The drug concentration resulting in total growth inhibition (TGI) was calculated from Ti = Tz. The LC50 (concentration of drug resulting in a 50% reduction in the measured protein at the end of the drug treatment as compared to that at the beginning) indicating a net loss of cells following treatment was calculated from [(Ti − Tz)/Tz] × 100 = −50 (2). Values were calculated for each of these parameters if the level of activity was reached; however, if the effect was not reached or was excessive, the value for that parameter was expressed as more or less than the maximum or minimum concentration tested.

CNS Cancer subpanel = assay: cells
Description: as §1, §2, §3, §4

Colon Cancer subpanel = assay: cells
Description: as §1, §2, §3, §4

Leukemia subpanel = assay: cells
Description: as §1, §2, §3, §4

Melanoma subpanel = assay: cells
Description: as §1, §2, §3, §4

[1] = test system: Non-Small Cell Lung Cancer subpanel; assay: cells
Description: as §1, §2, §3, §4

Ovarian Cancer subpanel = assay: cells
Description: as §1, §2, §3, §4

Prostate Cancer subpanel = assay: cells
Description: as §1, §2, §3, §4

Renal Cancer subpanel = assay: cells
Description: as §1, §2, §3, §4

A549/ATCC = A549/ATCC (Non-Small Cell Lung Cancer), 48 h, SRB
EKVX = assay: cells; settings: Homo sapiens, 48 h
786-0 = assay: cells; settings: Homo sapiens, 786-0, 48 h
SN12C = assay: cells; settings: Homo sapiens, 48 h
HOP-92 = assay: NCI DTP 60 cell line screen, SRB
NCI-322M = assay: NCI DTP 60 cell line screen, SRB; settings: 48 h
OVCAR-8 = assay: NCI DTP 60 cell line screen, SRB
CAKI-1 = assay: NCI DTP 60 cell line screen, SRB
BT-549 = assay: NCI DTP 60 cell line screen, SRB
[2] = Homo sapiens, read-out: MG_MID, GI50
[3] = Homo sapiens, read-out: MG_MID, LC50
[4] = full panel MG_MID / Breast Cancer subpanel MG_MID
[5] = full panel MG_MID / CNS Cancer subpanel MG_MID
[6] = full panel MG_MID / Colon Cancer subpanel MG_MID
[7] = full panel MG_MID / Leukemia subpanel MG_MID
[8] = full panel MG_MID / Melanoma subpanel MG_MID
[9] = full panel MG_MID / Non-Small Cell Lung Cancer subpanel MG_MID
[10] = full panel MG_MID / Ovarian Cancer subpanel MG_MID
[11] = full panel MG_MID / Prostate Cancer subpanel MG_MID
[12] = full panel MG_MID / Renal Cancer subpanel MG_MID

O=C1/C(=C/C(Cl)=C/c2ccc([N+](=O)[O-])cc2)SC(=S)N1c1ccc(O)cc1 [Compound 2f, 5-[(Z,2Z)-2-Chloro-3-(4-nitrophenyl)-2-propenylidene]-3-(4-hydroxyphenyl)-2-thioxo-4-thiazolidinone]
MG_MID, TGI (Breast Cancer subpanel; Breast Cancer panel mean): 11.6 µM | GI50 (Breast Cancer subpanel; [2]): 1890 nM | CC50 (Breast Cancer subpanel; [3]): 98.7 µM | SI (selectivity index), GI50 (Breast Cancer subpanel; [4]): 1.48 | SI (selectivity index), LC50 (Breast Cancer subpanel; [4]): 0.82 | SI (selectivity index), TGI (Breast Cancer subpanel; [4]): 2.78 | MG_MID, TGI (CNS Cancer subpanel; CNS Cancer panel mean): 30.6 µM | GI50 (CNS Cancer subpanel; [2]): 6.72 µM | CC50 (CNS Cancer subpanel; [3]): 77.4 µM | SI (selectivity index), GI50 (CNS Cancer subpanel; [5]): 0.42 | SI (selectivity index), LC50 (CNS Cancer subpanel; [5]): 1.04 | SI (selectivity index), TGI (CNS Cancer subpanel; [5]): 1.05 | MG_MID, TGI (Colon Cancer subpanel; Colon Cancer panel mean): 67.4 µM | GI50 (Colon Cancer subpanel; [2]): 1840 nM | CC50 (Colon Cancer subpanel; [3]): 84.5 µM | SI (selectivity index), GI50 (Colon Cancer subpanel; [6]): 1.52 | SI (selectivity index), LC50 (Colon Cancer subpanel; [6]): 0.96 | SI (selectivity index), TGI (Colon Cancer subpanel; [6]): 0.48 | TI (Therapeutic Index) (Leukemia subpanel; GI50 (normal blood lymphocyte)/GI50 (Leukemia Panel)): >353.36 | GI50 (Leukemia subpanel; [2]): 283 nM | CC50 (Leukemia subpanel; [3]): > 100 µM | MG_MID, TGI (Leukemia subpanel; Leukemia panel mean): 41.0 µM | SI (selectivity index), GI50 (Leukemia subpanel; [7]): 9.89 | SI (selectivity index), LC50 (Leukemia subpanel; [7]): <0.81 | SI (selectivity index), TGI (Leukemia subpanel; [7]): 0.78 | GI50 (Melanoma subpanel; [2]): 2630 nM | CC50 (Melanoma subpanel; [3]): 52.3 µM | MG_MID, TGI (Melanoma subpanel; Melanoma panel mean): 14.4 µM | SI (selectivity index), GI50 (Melanoma subpanel; [8]): 1.06 | SI (selectivity index), LC50 (Melanoma subpanel; [8]): 1.54 | SI (selectivity index), TGI (Melanoma subpanel; [8]): 2.23 | GI50 [1, 2]: 2930 nM | CC50 [1, 3]: 74 µM | MG_MID, TGI ([1]; Non-Small Cell Lung Cancer panel mean): 26.6 µM | SI (selectivity index), GI50 [1, 9]: 0.96 | SI (selectivity index), LC50 [1, 9]: 1.09 | SI (selectivity index), TGI [1, 9]: 1.21 | GI50 (Ovarian Cancer subpanel; [2]): 3.32 µM | CC50 (Ovarian Cancer subpanel; [3]): > 100 µM | MG_MID, TGI (Ovarian Cancer subpanel; Ovarian Cancer panel mean): 42.5 µM | SI (selectivity index), GI50 (Ovarian Cancer subpanel; [10]): 0.84 | SI (selectivity index), LC50 (Ovarian Cancer subpanel; [10]): <0.81 | SI (selectivity index), TGI (Ovarian Cancer subpanel; [10]): 0.76 | GI50 (Prostate Cancer subpanel; [2]): 1480 nM | CC50 (Prostate Cancer subpanel; [3]): 75.1 µM | SI (selectivity index), GI50 (Prostate Cancer subpanel; [11]): 1.89 | SI (selectivity index), LC50 (Prostate Cancer subpanel; [11]): 1.08 | SI (selectivity index), TGI (Prostate Cancer subpanel; [11]): 0.71 | GI50 (Renal Cancer subpanel; [2]): 2850 nM | CC50 (Renal Cancer subpanel; [3]): 69.1 µM | MG_MID, TGI (Renal Cancer subpanel; Renal Cancer panel mean): 24.1 µM | SI (selectivity index), GI50 (Renal Cancer subpanel; [12]): 0.98 | SI (selectivity index), LC50 (Renal Cancer subpanel; [12]): 1.17 | SI (selectivity index), TGI (Renal Cancer subpanel; [12]): 1.34 | TI (Therapeutic Index) (K-562; GI50 (normal blood lymphocyte)/GI50 (K-562)): >191.94 | TGI (K-562; K-562 (Leukemia), 48 h, SRB): > 100 µM | TGI (A549/ATCC): 6.47 µM | GI50 (EKVX): 2370 nM | CC50 (EKVX; read-out: LC50): > 100 µM | GI50 (786-0): 2040 nM | CC50 (786-0; read-out: LC50): 7.18 µM | GI50 (SN12C): 1980 nM | CC50 (SN12C; read-out: LC50): > 100 µM | TGI (HOP-92; HOP-92 (Non-Small Cell Lung Cancer), 48 h, SRB): 39.4 µM | GI50 (HOP-92; Homo sapiens, HOP-92, 48 h): 8.53 µM | CC50 (HOP-92; Homo sapiens, HOP-92, 48 h, read-out: LC50): > 100 µM | GI50 (NCI-322M; Homo sapiens, NCI-322M): 2490 nM | CC50 (NCI-322M; Homo sapiens, NCI-322M, read-out: LC50): > 100 µM | TGI (NCI-322M; NCI-322M (Non-Small Cell Lung Cancer), SRB): 9.02 µM | GI50 (OVCAR-8; Homo sapiens, OVCAR-8, 48 h): 1140 nM | CC50 (OVCAR-8; Homo sapiens, OVCAR-8, 48 h, read-out: LC50): > 100 µM | TGI (OVCAR-8; OVCAR-8 (Ovarian Cancer), 48 h, SRB): 22.9 µM | TGI (CAKI-1; CAKI-1 (Renal Cancer), 48 h, SRB): > 100 µM | GI50 (CAKI-1; Homo sapiens, CAKI-1, 48 h): 4.44 µM | CC50 (CAKI-1; Homo sapiens, CAKI-1, 48 h, read-out: LC50): > 100 µM | TGI (BT-549; BT-549 (Breast Cancer), 48 h, SRB): 7.71 µM | GI50 (BT-549; Homo sapiens, BT-549, 48 h): 1550 nM | CC50 (BT-549; Homo sapiens, BT-549, 48 h, read-out: LC50): > 100 µM
